Experimental data: ChEMBL document CHEMBL5352415, “Discovery of new macrophage M2 polarization modulators as multiple sclerosis treatment agents that enable the inflammation microenvironment remodeling” (Eur J Med Chem, 2022)
pIC50: −log10 of the molar value. Active and inactive are the calls of the source. The rule behind the calls is not given here.

Key:
[1] = tested on: Mus musculus; test: (§1) Anti-inflammatory activity in MOG (35 to 55 residues)/pertussis toxin-induced experimental autoimmune encephalomyelitis C57BL/6 mouse model assessed as inhibition of CD4+ T cell differentiation by measuring reduction in Th1 (IFN-gamma+) cells in spleen administered orally once daily starting from day 7 to day 20 by flow cytometric analysis; assay type: functional, organism-based; conditions: dose 75-150 mg/kg, route po, time 14.0 day
[2] = tested on: Mus musculus; test: (§2) Anti-inflammatory activity in MOG (35 to 55 residues)/pertussis toxin-induced experimental autoimmune encephalomyelitis C57BL/6 mouse model assessed as inhibition of M1 macrophage polarization by measuring decrease in Inos mRNA expression in CNS administered orally once daily starting from day 7 to day 20 by qRT-PCR analysis; assay type: functional, organism-based; conditions: dose 75-150 mg/kg, route po, time 14.0 day
[3] = Inhibition of LPS-induced M1 macrophage polarization in C57BL/6 mouse BMDM cells assessed as fold decrease in Inos gene level at 1 uM preincubated with LPS for 24 hrs followed by compound addition and measured after 24 hrs by qRT-PCR analysis (reference value: 524.05 +/- 24.75); assay type: functional
[4] = tested on: Mus musculus; test: (§3) Anti-inflammatory activity in MOG (35 to 55 residues)/pertussis toxin-induced experimental autoimmune encephalomyelitis C57BL/6 mouse model assessed as decrease in disease progression by measuring clinical score at 75 to 150 mg/kg, po administered once daily starting from day 7 to day 20; assay type: functional, organism-based; conditions: dose 75-150 mg/kg, time 14.0 day
[5] = tested on: Mus musculus; test: as §3, with “F4/80+ CD86+ M1 macrophage in spleen” for “disease progression by measuring clinical score”, “20 by flow cytometric analysis” for “20”; assay type: functional, organism-based; conditions: dose 75-150 mg/kg, time 14.0 day
[6] = tested on: Mus musculus; test: as §2, with “M2” for “inhibition of M1”, “increase” for “decrease”, “Mrc1” for “Inos”, “CNS at 75 to 150 mg/kg, po” for “CNS”, “administered” for “administered orally”; assay type: functional, organism-based; conditions: dose 75-150 mg/kg, time 14.0 day
[7] = AUC(0 to t) in ICR mouse at 50 mg/kg, po measured upto 24 hrs by LC/MS analysis; assay type: ADME, organism-based; design: dose 50 mg/kg, time < 24 hrs, route po; conditions: in vivo
[8] = molecular target: RAC-beta serine/threonine-protein kinase (Homo sapiens, UniProt P31751); test: Inhibition of AKT2 (unknown origin); assay type: binding
[9] = tested on: Mus musculus; test: as §1, with “Th17 (Il-4+)” for “Th1 (IFN-gamma+)”, “DLN” for “spleen”; assay type: functional, organism-based; conditions: dose 75-150 mg/kg, route po, time 14.0 day
[10] = tested on: Mus musculus; test: as §3, with “T cell activation” for “decrease in disease progression”, “increase in CD44lo CD62Lhi naive T cells in DLN” for “clinical score”, “20 by flow cytometric analysis” for “20”; assay type: functional, organism-based; conditions: dose 75-150 mg/kg, time 14.0 day
[11] = tested on: Mus musculus; test: Anti-inflammatory activity in MOG (35 to 55 residues)/pertussis toxin-induced experimental autoimmune encephalomyelitis C57BL/6 mouse model assessed as decrease in infiltrated inflammatory cells administered orally once daily starting from day 7 to day 20 by H&E staining based analysis; assay type: functional, organism-based; conditions: dose 75-150 mg/kg, route po, time 14.0 day

Sequence of RAC-beta serine/threonine-protein kinase (P31751 whole entry): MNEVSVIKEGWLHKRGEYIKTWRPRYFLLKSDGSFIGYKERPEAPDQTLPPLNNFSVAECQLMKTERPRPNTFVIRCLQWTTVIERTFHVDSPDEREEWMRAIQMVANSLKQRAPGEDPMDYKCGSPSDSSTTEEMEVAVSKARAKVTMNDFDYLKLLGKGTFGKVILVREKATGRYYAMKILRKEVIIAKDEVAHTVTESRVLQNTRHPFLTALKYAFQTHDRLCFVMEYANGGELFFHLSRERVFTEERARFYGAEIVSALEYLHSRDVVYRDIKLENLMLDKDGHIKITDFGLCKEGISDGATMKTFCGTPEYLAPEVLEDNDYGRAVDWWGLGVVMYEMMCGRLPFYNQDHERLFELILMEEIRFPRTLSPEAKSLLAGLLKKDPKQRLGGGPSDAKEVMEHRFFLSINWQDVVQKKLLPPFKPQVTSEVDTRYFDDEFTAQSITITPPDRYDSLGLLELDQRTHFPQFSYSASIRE

With `Cl.Cn1ncc(Br)c1-c1ccc(C(=O)N[C@@H]2CNCC[C@H]2c2ccc(F)c(F)c2)cc1C1CC1` the Activity [1] was “Dose-Dependent Effect”, the Activity [2] was “Dose-Dependent Effect” and the “fold change (FC)” value [3] was 195.4. For the same compound, the Activity [4] was “Active”, the Activity [5] was “Active” and the Activity [6] was “Active”. For the same compound, the AUC(0-t) at 24 h [7] was 27600 ng·h/mL, the pIC50 [8] was < 6.00 and the Activity [9] was “Dose-Dependent Effect”. The Activity [10] was “Active” and the Activity [11] was “Dose-Dependent Effect”.
